Measured values reported in US11446351B2, “Composition for treating one or more estrogen related diseases” (LIFEARC, priority 2018, dated 2022).
Counter-ions that a name gives are not always drawn. Where a SMILES comes first, the peptide text is derived from it. [ ]: non-standard residue; d: D form. dPhe(4-Cl) = N[C@H](Cc1ccc(Cl)cc1)C(=O)O; d2Nal = N[C@H](Cc1ccc2ccccc2c1)C(=O)O; d(hCit) = NC(=O)NCCCC[C@@H](N)C(=O)O; Lys(iPr) = CC(C)NCCCC[C@H](N)C(=O)O; d3Pal = N[C@H](Cc1cccnc1)C(=O)O

Experiments:
Type in all cases: in vivo, human
women = assay: Phase I study (Example 2): estradiol concentrations in serum
Description: Two formulations comprising either 45 mg or 30 mg Teverelix TFA and a placebo formulations, were prepared as described in example 1, i.e. the following formulations were prepared
The respective formulations were each injected subcutaneous (s.c.) to 24 subjects—12 per group i.e. 8 on active drug 4 on placebo per group. All subjects received a dose on either the active or placebo s.c. on day 3±1 of the menstrual cycle, i.e. • A single dosage of formulation B (45 mg Teverelix TFA) administered s.c. on day 3±1 of the menstrual cycle, • A single dosages of formulation C (30 mg Teverelix TFA) administered s.c. on day 3±1 of the menstrual cycle, and • A single dosage of formulation B placebo or formulation C placebo administered s.c. on day 3±1 of the menstrual cycle.
The concentration of Teverelix TFA, and Estradiol was measured over a period of 63 days. Additionally, the effect on Teverelix TFA on two bone markers was measured.
The mean estradiol concentration in the respective subjects was measured as described in example 1.

healthy female subjects [1] = assay: Phase I trial (Example 1): estradiol concentration in serum
Description: (§1) The Teverelix TFA formulations were manufactured as followed. 0.8 ml or 0.6 ml 5% mannitol were added to the relevant dosage of 60 or 45 mg of the LHRH antagonist Teverelix® trifluoroacetate, respectively. The mixture was stirred using vortex during one minute providing two dosage formulations of Teverelix TFA in a flowing milky pearly microcrystalline aqueous suspensions. The suspensions are made of microcrystals of about 10 μm length. Corresponding placebo formulations, without Teverelix TFA was also prepared
(§2) A phase I clinical trial with formulation A and B (and placebo) was conducted in order to evaluate the pharmacokinetics, pharmacodynamics, safety and tolerability of Teverelix TFA.
(§3) The formulations were each injected subcutaneous (s.c.) as follows: • A single dosage of formulation A (60 mg Teverelix TFA) administered s.c. on day 3±1 of the menstrual cycle, to 8 healthy female subjects • A single dosage of formulation A placebo was administered s.c. to on day 3±1 of the menstrual cycle, to 4 healthy female subjects • Two dosages of formulation B (45 mg Teverelix TFA) administered s.c. to 8 healthy female subjects. The first dosage on day 3±1 of the menstrual cycle and a second dosage administered on day 10±1 of the menstrual cycle, and • two dosages of formulation B placebo was administered s.c. to 4 healthy female subjects. The first dosage on day 3±1 of the […] menstrual cycle and a second dosage administered on day 10±1 of the menstrual cycle.
The mean estradiol concentration in the respective subjects was measured. The results are shown in table 1 and 2, respectively and is depicted in FIG. 1 in relation to the placebo data.

[2] = Phase I trial (Example 1): pharmacokinetics, total systemic exposure of Teverelix
Description: as §1, §2, §3

healthy female subjects [3] = assay: Phase I trial (Example 1): progesterone, LH and FSH in serum
Description: as §2, §3

[4] = 60 mg single s.c. (Treatment Group 1)
[5] = 2 × 45 mg s.c. (Treatment Group 2)

SMILES: CC(=O)N[C@H](Cc1ccc2ccccc2c1)C(=O)N[C@H](Cc1ccc(Cl)cc1)C(=O)N[C@H](Cc1cccnc1)C(=O)N[C@@H](CO)C(=O)N[C@@H](Cc1ccc(O)cc1)C(=O)N[C@H](CCCCNC(N)=O)C(=O)N[C@@H](CC(C)C)C(=O)N[C@@H](CCCCNC(C)C)C(=O)N1CCC[C@H]1C(=O)N[C@H](C)C(N)=O [Teverelix TFA, N-Ac-d-Nal^1,d-pCl-Phe^2,d-Pal^3,d-(Hci)^6,Lys(iPr)^8,d-Ala^10 trifluoroacetate] (Ac-[d2Nal][dPhe(4-Cl)][d3Pal]SY[d(hCit)]L[Lys(iPr)]P[dA]-NH2; C-terminus assumed)
- Mean Estradiol concentration in serum (women; 30 mg dosage, day 0 (baseline)): 27.7 ng/L
- Mean Estradiol concentration in serum (women; 30 mg dosage, day 0.25): 16.1 ng/L
- Mean Estradiol concentration in serum (women; 30 mg dosage, day 0.5): 13.8 ng/L
- Mean Estradiol concentration in serum (women; 30 mg dosage, day 1): 12.3 ng/L
- Mean Estradiol concentration in serum (women; 30 mg dosage, day 2 (nadir)): 11.2 ng/L
- Mean Estradiol concentration in serum (women; 30 mg dosage, day 3): 13.7 ng/L
- Mean Estradiol concentration in serum (women; 30 mg dosage, day 4): 19.4 ng/L
- Mean Estradiol concentration in serum (women; 30 mg dosage, day 5): 22.6 ng/L
- Mean Estradiol concentration in serum (women; 30 mg dosage, day 6): 24.4 ng/L
- Mean Estradiol concentration in serum (women; 30 mg dosage, day 7): 31.0 ng/L
- Mean Estradiol concentration in serum (women; 30 mg dosage, day 9): 50.2 ng/L
- Mean Estradiol concentration in serum (women; 30 mg dosage, day 11): 46.5 ng/L
- Mean Estradiol concentration in serum (women; 30 mg dosage, day 13): 59.9 ng/L
- Mean Estradiol concentration in serum (women; 30 mg dosage, day 15): 36.3 ng/L
- Mean Estradiol concentration in serum (women; 30 mg dosage, day 17): 38.7 ng/L
- Mean Estradiol concentration in serum (women; 30 mg dosage, day 19): 51.4 ng/L
- Mean Estradiol concentration in serum (women; 30 mg dosage, day 21): 64.5 ng/L
- Mean Estradiol concentration in serum (women; 30 mg dosage, day 28): 67.4 ng/L
- Mean Estradiol concentration in serum (women; 30 mg dosage, day 35): 60.7 ng/L
- Mean Estradiol concentration in serum (women; 30 mg dosage, day 42): 58.6 ng/L
- Mean Estradiol concentration in serum (women; 30 mg dosage, day 49): 60.5. ng/L
- Mean Estradiol concentration in serum (women; 30 mg dosage, day 56): 105.1 ng/L
- Mean Estradiol concentration in serum (women; 30 mg dosage, day 63): 90.7 ng/L
- mean estradiol level over the prolonged period (women; 30 mg dose): 40.5 pg/mL
- day on which estradiol levels returned to baseline (women; 30 mg group): ≤ 8 days
- women who ovulated during the study period (based on peak estradiol levels) (women; 30 mg group): one of the 8
- Mean Estradiol concentration in serum (women; 45 mg dosage, day 0 (baseline)): 21.5 ng/L
- Mean Estradiol concentration in serum (women; 45 mg dosage, day 0.25): 16.3 ng/L
- Mean Estradiol concentration in serum (women; 45 mg dosage, day 0.5): 11.5 ng/L
- Mean Estradiol concentration in serum (women; 45 mg dosage, day 1): 8.4 ng/L
- Mean Estradiol concentration in serum (women; 45 mg dosage, day 2 (nadir)): 7.5 ng/L
- Mean Estradiol concentration in serum (women; 45 mg dosage, day 3): 11.4 ng/L
- Mean Estradiol concentration in serum (women; 45 mg dosage, day 4): 12.3 ng/L
- Mean Estradiol concentration in serum (women; 45 mg dosage, day 5): 13.3 ng/L
- Mean Estradiol concentration in serum (women; 45 mg dosage, day 6): 17.5 ng/L
- Mean Estradiol concentration in serum (women; 45 mg dosage, day 7): 17.8 ng/L
- Mean Estradiol concentration in serum (women; 45 mg dosage, day 9): 22.6 ng/L
- Mean Estradiol concentration in serum (women; 45 mg dosage, day 11): 36.4 ng/L
- Mean Estradiol concentration in serum (women; 45 mg dosage, day 13): 54.9 ng/L
- Mean Estradiol concentration in serum (women; 45 mg dosage, day 15): 91.6 ng/L
- Mean Estradiol concentration in serum (women; 45 mg dosage, day 17): 105.9 ng/L
- Mean Estradiol concentration in serum (women; 45 mg dosage, day 19): 115.1 ng/L
- Mean Estradiol concentration in serum (women; 45 mg dosage, day 21): 126.1 ng/L
- Mean Estradiol concentration in serum (women; 45 mg dosage, day 28): 80.9 ng/L
- Mean Estradiol concentration in serum (women; 45 mg dosage, day 35): 41.6 ng/L
- Mean Estradiol concentration in serum (women; 45 mg dosage, day 42): 67.4 ng/L
- Mean Estradiol concentration in serum (women; 45 mg dosage, day 49): 92.4 ng/L
- Mean Estradiol concentration in serum (women; 45 mg dosage, day 56): 104.9 ng/L
- Mean Estradiol concentration in serum (women; 45 mg dosage, day 63): 47.1 ng/L
- mean estradiol level over the prolonged period (women; 45 mg dose): 49.0 pg/mL
- day on which estradiol levels returned to baseline (women; 45 mg group): ≤ 9 days
- women who ovulated during the study period (based on peak estradiol levels) (women; 45 mg group): 5 of the 8
- Mean Estradiol concentration in serum (women; 30 + 45 mg groups, day 0 (baseline)): 24.6 ng/L
- Mean Estradiol concentration in serum (women; 30 + 45 mg groups, day 0.25): 16.2 ng/L
- Mean Estradiol concentration in serum (women; 30 + 45 mg groups, day 0.5): 12.7 ng/L
- Mean Estradiol concentration in serum (women; 30 + 45 mg groups, day 1): 10.4 ng/L
- Mean Estradiol concentration in serum (women; 30 + 45 mg groups, day 2): 9.4 ng/L
- Mean Estradiol concentration in serum (women; 30 + 45 mg groups, day 3): 12.6 ng/L
- Mean Estradiol concentration in serum (women; 30 + 45 mg groups, day 4): 15.8 ng/L
- Mean Estradiol concentration in serum (women; 30 + 45 mg groups, day 5): 17.9 ng/L
- Mean Estradiol concentration in serum (women; 30 + 45 mg groups, day 6): 20.9 ng/L
- Mean Estradiol concentration in serum (women; 30 + 45 mg groups, day 7): 24.4 ng/L
- Mean Estradiol concentration in serum (women; 30 + 45 mg groups, day 9): 36.4 ng/L
- Mean Estradiol concentration in serum (women; 30 + 45 mg groups, day 11): 41.8 ng/L
- Mean Estradiol concentration in serum (women; 30 + 45 mg groups, day 13): 57.2 ng/L
- Mean Estradiol concentration in serum (women; 30 + 45 mg groups, day 15): 64.0 ng/L
- Mean Estradiol concentration in serum (women; 30 + 45 mg groups, day 17): 72.3 ng/L
- Mean Estradiol concentration in serum (women; 30 + 45 mg groups, day 19): 83.3 ng/L
- Mean Estradiol concentration in serum (women; 30 + 45 mg groups, day 21): 95.3 ng/L
- Mean Estradiol concentration in serum (women; 30 + 45 mg groups, day 28): 74.1 ng/L
- Mean Estradiol concentration in serum (women; 30 + 45 mg groups, day 35): 51.1 ng/L
- Mean Estradiol concentration in serum (women; 30 + 45 mg groups, day 42): 63.0 ng/L
- Mean Estradiol concentration in serum (women; 30 + 45 mg groups, day 49): 76.4 ng/L
- Mean Estradiol concentration in serum (women; 30 + 45 mg groups, day 56): 105.0 ng/L
- Mean Estradiol concentration in serum (women; 30 + 45 mg groups, day 63): 68.9 ng/L
- time at which estradiol returned to near baseline and menses reoccurred in at least one subject (healthy female subjects [1]; 2 × 45 mg one week apart): 1008 h p.f.a
- estradiol mean (SD) concentration relative to baseline (healthy female subjects [1]; 2 × 45 mg, after first injection, 48 h p.f.a.): −14.56 (9.95) ng/L
- estradiol mean (SD) concentration relative to baseline (healthy female subjects [1]; 2 × 45 mg, after second injection, 312 h p.f.a.): −14.20 (10.85) ng/L
- estradiol concentrations when compared to placebo (healthy female subjects [1]; both doses (60 mg; 2 × 45 mg), FIG. 1): significantly reduced
- time at which estradiol returned to near baseline and menses reoccurred in at least one subject (healthy female subjects [1]; single 60 mg): 840 h p.f.a
- estradiol mean (SD) concentration relative to baseline (healthy female subjects [1]; single 60 mg, 264 h p.f.a): −31.22 (23.11) ng/L
- estradiol mean (SD) concentration relative to baseline (healthy female subjects [1]; single 60 mg, 456 h p.f.a): −1.04 (90.98) ng/L
- AUC(0−cq), Geometric Mean [2, 4]: 1.592 µM·h
- AUC(0−t), Geometric Mean [2, 4]: 1.907 µM·h
- CmaxInit1, Geometric Mean [2, 4]: 10.9 nM
- CmaxLate, Geometric Mean [2, 4]: 2.63 nM
- AUC(0−cq), Geometric Mean [2, 5]: 2.323 µM·h
- AUC(0−t), Geometric Mean [2, 5]: 2.833 µM·h
- CmaxInit1, Geometric Mean [2, 5]: 6.03 nM
- CmaxInit2, Geometric Mean [2, 5]: 7.03 nM
- CmaxLate, Geometric Mean [2, 5]: 3.63 nM
- total systemic exposure, two injections of 45 mg one week apart compared with a single 60 mg injection ([2]; s.c., healthy female subjects): approximately 1.5 fold
- concentration of progesterone following dosing (healthy female subjects [3]; FIG. 2): decreased
- concentration of LH following dosing (healthy female subjects [3]; FIG. 3): decreased
- concentration of FSH following dosing (healthy female subjects [3]; FIG. 4): decreased
